Measured values as given in patent US20210363483A1, “METHOD FOR PRODUCING CULTURED CELL, AND METHOD FOR PRODUCING THERAPEUTIC AGENT FOR SPINAL CORD INJURY DISEASE” (REGENESIS SCIENCE CO., LTD., priority 2017, published 2021).

Test system: GDNF mRNA
Assay: GDNF mRNA expression by real-time PCR in cultured human skin-derived stem cells
Type: cell-based
Description: To find a compound or cytokine to increase the expression of GDNF in cells, following 6 candidate materials were examined: Valproic Acid (VA), Platelet-Derived Growth Factor (PDGF), SAG (or Purmorphamine or rh-Sonic Hedgehog (PeproTech)), Bone Morphogenic Protein 4 (BMP4). These 6 materials were added to 7 wells, which had reached to confluence in Example 1, in the following combinations: (1) Control (not added) (2) VA (1 uM), (3) VA (1 uM)+PDGF (long/ml), (4) VA (1 uM)+SAG (0.3 uM), (5) PDGF (long/ml), (6) SAG (0.3 uM), (7) […] (long/ml). 72 hours after the addition, total RNA was extracted from each well by TRIzol method. Using “ReverTra Ace (trade mark) qPCR RT kit”, a cDNA synthesis kit for PCR, 0.5 ug of each total RNA was added to 10 μL of ReverTra Ace (trade mark) qPCR RT kit to synthesize respective cDNA. […]
PCR was performed by three-step method under the conditions of annealing 60° C./elongation 72° C. and the steps (1) to (2) were repeated for 40 cycles. In the last step, a Melting Curve was analyzed and it was confirmed that no primer dimer was produced. […]

## c1ccc2c(Oc3nc(Nc4ccc(N5CCOCC5)cc4)c4ncn(C5CCCCC5)c4n3)cccc2c1 [Purmorphamine, 9-Cyclohexyl-N-[4-(4-morpholinyl)phenyl]-2-(1-naphthalenyloxy)-9H-purin-6-amine]
Purmorphamine 1.5 uM used in place of SAG
  expression of GDNF mRNA (GDNF mRNA/GAPDH mRNA) compared with control: ~10 times

## CNC1CCC(N(Cc2cccc(-c3ccncc3)c2)C(=O)c2sc3ccccc3c2Cl)CC1 (centres unmarked) [SAG, N-Methyl-N′-(3-pyridinylbenzyl)-N′-(3-chlorobenzo[b]thiophene-2-carbonyl)-1,4-diaminocyclohexane]
SAG 0.3 uM, 72 hours after addition
  expression of GDNF mRNA (GDNF mRNA/GAPDH mRNA) compared with control: more than 10 times
